Some test systems named below: UACC-62; K562; OVCAR-4; HCT-15; RPMI-8226; HOP-92; SF-295; EKVX; Malme-3M; SR; DU-145; HOP-62; COLO 205; KM12; A498; A549; NCI-H226; UACC-257; CAKI-1; NCI-H460.
Common to all, as to experiment: NCI-60 cell line screen, 48 h

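Dose response: 5 concentrations. Exposure: 48 h. Format: 96-well plates. Endpoint: linear interpolation; highest concentration if not reached. GI50 marks 50% less growth.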 Calls of active or inactive are those of the source. Cut-off read from the data, not from the text of the source: active = GI50 up to about 1.1 µM and inactive = higher.

For `COc1ccc(/C=C2\NC(=S)N(CN3CCCCC3)C2=O)cc1`, the GI50 was 44.7 µM (inactive) in the test with UACC-62; 34.5 µM (inactive) in the test with K562; 20 µM (inactive) with OVCAR-4; 24.6 µM in the test on HCT-15; 27.1 µM (inactive) in the test with RPMI-8226; 76 µM (inactive) in the test on HOP-92. Moreover, the GI50 is 69.7 µM (inactive) with SF-295; 34.4 µM (inactive) in the test with EKVX; 30.3 µM (inactive) in the test on Malme-3M; 38.1 µM (inactive) in the test with SR; 71 µM (inactive) in the test with DU-145; > 100 µM (inactive) in the test with HOP-62. Also, the GI50 is 35.2 µM (inactive) in the test with COLO 205; 73.1 µM (inactive) in the test on KM12; 51.9 µM (inactive) with A498; 72.1 µM (inactive) in the test on A549; 42.2 µM (inactive) with NCI-H226.

Take `COc1cc(OC)nc(NC(=O)NS(=O)(=O)c2cccc3ncn(C)c(=O)c23)n1`: the GI50 is > 100 µM (inactive) in the test on UACC-62; > 100 µM (inactive) in the test on K562; > 100 µM (inactive) with OVCAR-4; greater than 100 µM in the test on HCT-15; > 100 µM (inactive) in the test with RPMI-8226; > 100 µM (inactive) in the test on HOP-92. For the same compound, the GI50 in the test on SF-295, in the test on EKVX, in the test with Malme-3M, in the test with SR, in the test with DU-145 and in the test with HOP-62 was > 100 µM (inactive) throughout. Further, the GI50 in the test on COLO 205, in the test on A498, with A549, in the test on UACC-257, with CAKI-1 and in the test with NCI-H226 was > 100 µM (inactive) in each case.

With `CC(C)CCCC(C)[C@H]1CCC2[C@@H]3CCC4Cc5nc6c(nc5C[C@]4(C)C3CC[C@@]21C)CC1CC[C@@H]2C(CC[C@@]3(C)C2CC[C@@H]3C(C)CCCC(C)C)[C@@]1(C)C6` (stereo partly drawn), the GI50 was > 100 µM (inactive) in the test on UACC-62; > 100 µM (inactive) with K562; > 100 µM (inactive) in the test with OVCAR-4; greater than 100 µM with HCT-15; > 100 µM (inactive) in the test on RPMI-8226; > 100 µM (inactive) in the test on HOP-92. Further, the GI50 with SF-295, in the test on EKVX, with Malme-3M, with SR, in the test on DU-145 and in the test with NCI-H460 was > 100 µM (inactive) throughout. Further, the GI50 in the test with HOP-62, in the test on COLO 205, with KM12, in the test with A498, with A549 and with UACC-257 was > 100 µM (inactive) each time. For the same compound, the GI50 with NCI-H226 is > 100 µM (inactive).

With `COc1ccc(-n2c(N)c(C#N)[nH]c2=O)cc1`, the GI50 in the test with UACC-62 was > 10 µM (inactive); with K562, > 10 µM (inactive); in the test with OVCAR-4, > 10 µM (inactive); in the test with HCT-15, greater than 10 µM; in the test on RPMI-8226, > 10 µM (inactive); in the test on HOP-92 it was > 10 µM (inactive). The GI50 is 2.77 µM (inactive) with SF-295; > 10 µM (inactive) with EKVX; > 10 µM (inactive) in the test with Malme-3M; > 10 µM (inactive) in the test with SR; > 10 µM (inactive) in the test with DU-145; > 10 µM (inactive) with NCI-H460. Besides, the GI50 with HOP-62, with COLO 205, with KM12, with A498, in the test with A549 and in the test on UACC-257 was > 10 µM (inactive) in each case. In addition, the GI50 in the test on NCI-H226 is > 10 µM (inactive).

For the origin of these results see ChEMBL document CHEMBL1201862, “PubChem BioAssay data set” (2004).
